# According to PubChem BioAssay (NCI):
# Values joined by “and” are separate entries in the source; they are usually repeats but may differ in a detail not shown here. Equal values may be shown once.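 Step 1: Grow cells in 96-well plates. Step 2: Expose to compound for 48 hours at 5 concentrations. Step 3: Interpolate endpoints linearly; if unreached, use highest concentration. Abbreviation: GI50, concentration required for 50% inhibition of growth. Definition used: TGI = concentration required for complete inhibition of growth.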
# Experiments:
# Assay in all cases: NCI-60 cell line screen, 48 h
# OVCAR-5 ovarian = system: OVCAR-5 ovarian
# SK-OV-3 ovarian = system: SK-OV-3 ovarian
# UO-31 renal = system: UO-31 renal
# U251 CNS = system: U251 CNS
# NCI-H522 lung = system: NCI-H522 lung
# A498 renal = system: A498 renal
# HOP-92 NSCLC = system: HOP-92 NSCLC
# OVCAR-8 ovarian = system: OVCAR-8 ovarian
# HCC-2998 colon = system: HCC-2998 colon
# HT29 colon = system: HT29 colon
SMILES,TGI (OVCAR-5 ovarian) [µM],TGI (SK-OV-3 ovarian),TGI (UO-31 renal),TGI (U251 CNS),TGI (NCI-H522 lung),TGI (A498 renal),TGI (HOP-92 NSCLC),TGI (OVCAR-8 ovarian) [µM],TGI (HCC-2998 colon) [µM],TGI (HT29 colon) [µM],GI50 (OVCAR-5 ovarian) [µM],GI50 (SK-OV-3 ovarian) [µM],GI50 (UO-31 renal) [µM],GI50 (U251 CNS) [µM],GI50 (NCI-H522 lung) [µM],GI50 (A498 renal) [µM],GI50 (HOP-92 NSCLC) [µM],GI50 (OVCAR-8 ovarian) [µM],GI50 (HCC-2998 colon),GI50 (HT29 colon) [µM]
O=c1cc(-c2ccc(O)cc2)oc2cc(O[C@@H]3O[C@H](CO)[C@@H](O)[C@H](O)[C@H]3O)cc(O)c12,> 100,> 100 µM,> 100 µM,> 100 µM,> 100 µM,> 100 µM,> 100 µM,> 100,> 100,> 100,,,,,,,,,,
C#CCNC(=S)N/N=C(\C)c1ccccn1,> 100,> 100 µM,> 100 µM,> 100 µM,> 100 µM,10.1 µM,> 100 µM,> 100,> 100,> 100,0.885,3,0.333,0.408,3.33,1.07,0.28,0.284,1.24 µM,0.234
Cn1cccc1-c1cc(-c2ccccc2)[nH]c(=O)c1C#N,> 100,> 100 µM,> 100 µM,> 100 µM,> 100 µM,> 100 µM,0.0283 µM,> 100,> 100,> 100,> 100,> 100,> 100,> 100,> 100,25.6,,> 100,> 100 µM,> 100
N#C/C(=C\c1cccc(O)c1O)C(N)=O,> 100,93.7 µM,85.3 µM,> 100 µM,58.4 µM,> 100 µM,> 100 µM,> 100,46.9,> 100,,,,,,,,,,
COc1cc2ncnc(-n3ncc4cc(NC(=O)Nc5ccc(Cl)c(Cl)c5)ccc43)c2cc1OC,4.31,4.03 µM,4.17 µM,3.06 µM,6 µM,6.24 µM,4.19 µM,7.07,8.87,4.29,1.83,2.04,2.04,1.5,2.5,2.37,1.92,2.77,2.61 µM,1.98
CCOc1ccc2c(c1)C(=O)c1c-2n(CCCBr)c(=O)c2cc([N+](=O)[O-])ccc12,> 100,> 100 µM,13.6 µM,> 100 µM,72.8 µM,> 100 µM,> 100 µM,> 100,> 100,> 100,59.4,17.6,2.9,6.13,5.74,36,37.1,4.8,57.7 µM,> 100
Cc1ncc(C(=O)Nc2ccc(CN3CCN(C)CC3)c(C(F)(F)F)c2)cc1C#Cc1ccc(N)nc1,5.3,2.56 µM,0.793 µM,4.95 µM,1.75 µM,0.294 µM,0.935 µM,5.03,4.66,1.16,0.412,0.395,0.161,0.483,0.192,0.0898,0.116,0.489,0.998 µM,0.129
CCc1cccc(C)c1N1C(=O)C(=O)C(c2nc3ccccc3o2)C(=O)C1=O,> 100,> 100 µM,> 100 µM,> 100 µM,> 100 µM,> 100 µM,> 100 µM,> 100,> 100,> 100,,,,,,,,,,
CCN(Cc1cc(F)ccc1F)c1ccc(CO)c(Cl)c1,0.228,29.1 µM,23.4 µM,17.1 µM,29 µM,0.145 µM,6.21 µM,36.2,21.7,17.7,0.0502,8.94,2.02,0.788,12.2,0.0298,0.292,13,6.37 µM,4.1
NS(=O)(=O)c1ccc(N=Nc2c(O)[nH]c3ccc(C(=O)NCc4ccncc4)cc23)cc1,> 25,> 25 µM,> 25 µM,> 25 µM,> 25 µM,> 25 µM,> 25 µM,> 25,> 25,> 25,> 25,> 25,> 25,> 25,> 25,> 25,> 25,> 25,> 25 µM,24.6
CC(C)(O)/C=C/C(=O)[C@](C)(O)[C@H]1[C@H](O)C[C@@]2(C)[C@@H]3CC=C4[C@@H](C[C@H](O)C(=O)C4(C)C)[C@]3(C)C(=O)C[C@]12C,,0.977 µM and 4.71 µM,0.396 µM and 0.519 µM,0.419 µM and 0.322 µM,0.453 µM and 0.775 µM,0.244 µM and 0.115 µM,0.439 µM and 0.407 µM,19.9,8.67,18.3,0.692,0.566,0.206,0.105,0.069,0.0909,0.255,,0.371 µM and 0.647 µM,0.0623
CCCn1cnc2c(SCC(=O)O)nc(N)nc21,> 100,> 100 µM,> 100 µM,> 100 µM,> 100 µM,> 100 µM,> 100 µM,> 100,> 100,> 100,,,,,,,,,,
C#CCNC(=O)NCCCCC(NC(=O)OCc1ccccc1)C(=O)OCc1ccccc1 (configuration not stated),> 100,> 100 µM,> 72.3 µM,> 100 µM,54 µM,> 100 µM,> 100 µM,> 100,> 72.5,> 100,,,,,,,,,,
Cc1ccc2nc(-c3ccc(OCC(=O)N=Nc4c(O)[nH]c5ccccc45)cc3)[nH]c2c1,> 100,37 µM,> 100 µM,3.6 µM,5.09 µM,> 100 µM,18.2 µM,6.34,20.5,6.27,19.1,17.5,82.4,1.86,2,> 100,2.79,2.46,4.1 µM,2.43
C=C1C(=O)O[C@H]2[C@H]1CC/C(COC(=O)NCc1ccc(OC)cc1)=C\CC[C@@]1(C)O[C@@H]21,8.53,29.3 µM,0.991 µM,16.2 µM,1.15 µM,20 µM,1.83 µM,9.27,6.67,2.78,2.16,14.6,0.501,2.65,0.378,2.92,0.559,1.23,1.75 µM,0.835
CCN1CCN(c2cc(C)nc(N(CCCNc3ccnc4cc(Cl)ccc34)Cc3ccc4c(c3)OCO4)n2)CC1,> 100,34.8 µM,3.08 µM,4.73 µM,4.76 µM,20.8 µM,4.67 µM,14.4,5.39,5.79,5.32,14.8,1.51,2.13,2.03,3.66,1.61,3.19,2.4 µM,1.95
CN1CCN(Cc2ccc(NC(=O)c3cncc(C#Cc4cnc(N)cc4C#N)c3)cc2C(F)(F)F)CC1,14.2,9.31 µM,6.95 µM,19.1 µM,17.7 µM,3.67 µM,4.44 µM,19,15.4,15.5,2.76,2.63,2,4.45,3.69,0.227,0.906,4.51,3.9 µM,1.04
CN(Cc1ccc(C(F)(F)F)cc1)CC(O)C(=O)Nc1ccc(Cl)cc1 (configuration not stated),2.86,2.96 µM,2.65 µM,3.16 µM,3.06 µM,2.79 µM,2.37 µM,3.5,3.08,2.77,1.43,1.48,1.29,1.73,1.5,1.38,1.08,1.8,1.66 µM,1.39
O=C(/C=C/c1ccc(C(F)(F)F)cc1)Nc1ccc(C=C2c3ccccc3C(=O)c3ccccc32)cc1,> 100,86.7 µM,> 100 µM,60.7 µM,25.4 µM,52.8 µM,22.4 µM,> 100,> 100,> 100,43.6,12.7,8.47,5.69,2.36,2.6,1.49,15.4,8.71 µM,4.56
CC(C)c1nc(N(C)S(C)(=O)=O)nc(-c2ccc(F)cc2)c1/C=C/[C@@H](O)C[C@@H](O)CC(=O)O,> 100,> 100 µM,> 100 µM,> 100 µM,> 100 µM,20.8 µM,6.68 µM,> 100,> 100,> 100,> 100,> 100,> 100,18.9,21.5,3.57,0.467,> 85.4,> 100 µM,> 100
O=C1C2=C(C(=O)c3cnccc31)C1C=CC2CC1 (configuration not stated),3.71,10.4 µM,3.69 µM,3.19 µM,4.1 µM,29.7 µM,8.8 µM,2.09,21.2,5.7,1.93,5.58,1.95,1.76,1.96,16.1,2.62,0.715,8.74 µM,2.58
CN(C)CCNC(=O)c1ccc(-c2nc3ccc4[nH]ncc4c3c3c2C2CCC3C2)cc1 (configuration not stated),9.85,4.28 µM,5.18 µM,8.89 µM,4.33 µM,1.22 µM,4.25 µM,9.81,5.64,13,3.01,0.348,2.03,1.17,1.25,0.22,1.74,1.4,1.74 µM,1.84
Cc1ccc(S(=O)(=O)N=NC=C2c3ccccc3N(O)c3ccccc32)cc1,27.8,27.9 µM,27.1 µM,13.1 µM,3.86 µM,13.9 µM,19.5 µM,14.7,21.6,13.2,,,,,,,,,,
COc1ccc(C(=O)c2cc3c(N)c(C(=O)Nc4ccccc4)sc3nc2C)cc1,> 100,> 100 µM,> 100 µM,> 100 µM,> 100 µM,0.645 µM,> 100 µM,> 100,55.3,> 100,3.1,0.763,2.64,0.704,1.89,0.184,86.3,3.71,1.96 µM,0.562
CN(C)c1ccc(/C=C2\N=C(c3ccccc3)N(c3cc(C(F)(F)F)ccc3Cl)C2=O)cc1,> 100,> 100 µM,> 100 µM,> 100 µM,> 100 µM,> 100 µM,> 100 µM,> 100,> 100,> 100,> 100,> 100,> 100,> 94.7,> 100,> 100,> 87.1,> 100,> 100 µM,> 100
O=C(C#Cc1ccccc1)N1c2ccccc2CC1c1c[nH]c2ccccc12 (configuration not stated),64.4,51 µM,> 100 µM,35.8 µM,24.1 µM,73 µM,32.5 µM,27.5,31.3,40.6,,,,,,,,,,
CC[C@@]1(OC(=O)CN)C(=O)OCc2c1cc1n(c2=O)Cc2c-1nc1cc3c(cc1c2CCl)OCO3,13,> 31.6 µM,1.44 µM,> 42.9 µM,2.19 µM,1.24 µM,7.13 µM,0.354,3.76,1.22,1.03,0.375,< 0.01,0.0185,0.0257,0.0661,0.0724,< 0.0105,0.283 µM,0.052
